# Measured values reported in patent US20120270915A1, “FATTY ACID AMIDE HYDROLASE INHIHIBITORS FOR TREATING PAIN” (priority 2011, published 2012).
# Where two headings read alike, the source gives them in different places.
# Key:
# DP receptor = target: T1, DP receptor (Homo sapiens, UniProt Q13258); assay: Prostanoid receptor antagonism (FLIPR), DP; format: cell-based
# T1 sequence (Q13258 1-359): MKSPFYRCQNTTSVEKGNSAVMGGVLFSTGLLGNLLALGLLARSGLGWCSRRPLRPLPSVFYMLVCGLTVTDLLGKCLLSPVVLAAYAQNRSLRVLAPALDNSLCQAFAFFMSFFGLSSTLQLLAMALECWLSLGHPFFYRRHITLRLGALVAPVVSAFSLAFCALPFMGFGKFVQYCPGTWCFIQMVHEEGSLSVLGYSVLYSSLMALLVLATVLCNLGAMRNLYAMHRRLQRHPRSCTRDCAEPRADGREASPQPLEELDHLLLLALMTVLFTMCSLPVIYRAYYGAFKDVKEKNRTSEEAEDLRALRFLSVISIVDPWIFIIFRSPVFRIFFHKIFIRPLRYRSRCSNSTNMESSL
# EP3 receptor = target: T2, EP3 receptor (Homo sapiens, UniProt P43115); assay: Prostanoid receptor antagonism (FLIPR), EP3; format: cell-based
# T2 sequence (P43115 1-390): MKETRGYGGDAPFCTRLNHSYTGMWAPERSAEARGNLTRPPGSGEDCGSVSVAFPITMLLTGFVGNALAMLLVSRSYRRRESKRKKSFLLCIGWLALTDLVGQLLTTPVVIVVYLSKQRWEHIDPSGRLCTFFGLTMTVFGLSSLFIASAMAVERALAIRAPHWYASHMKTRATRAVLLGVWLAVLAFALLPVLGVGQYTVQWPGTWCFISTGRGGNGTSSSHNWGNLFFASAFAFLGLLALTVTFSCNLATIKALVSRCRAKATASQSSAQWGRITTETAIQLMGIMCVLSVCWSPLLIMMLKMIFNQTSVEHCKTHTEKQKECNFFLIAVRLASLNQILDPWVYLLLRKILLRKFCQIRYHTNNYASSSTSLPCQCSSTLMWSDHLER
# EP1 receptor = target: T3, EP1 receptor (Homo sapiens, UniProt P34995); assay: Prostanoid receptor antagonism (FLIPR), EP1; format: cell-based
# T3 sequence (P34995 1-402): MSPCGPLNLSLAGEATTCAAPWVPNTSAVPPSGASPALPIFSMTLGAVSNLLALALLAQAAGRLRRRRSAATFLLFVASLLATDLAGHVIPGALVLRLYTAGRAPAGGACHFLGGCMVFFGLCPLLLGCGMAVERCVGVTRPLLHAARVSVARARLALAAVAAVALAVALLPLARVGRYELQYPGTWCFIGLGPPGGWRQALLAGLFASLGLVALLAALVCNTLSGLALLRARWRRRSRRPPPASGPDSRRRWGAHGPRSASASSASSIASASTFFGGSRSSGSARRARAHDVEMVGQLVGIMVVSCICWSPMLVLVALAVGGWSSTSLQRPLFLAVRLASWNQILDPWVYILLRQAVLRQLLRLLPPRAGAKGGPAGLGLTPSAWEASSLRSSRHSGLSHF
# EP4 receptor = EP4 receptor (Homo sapiens, UniProt P35408); assay: Prostanoid receptor antagonism (FLIPR), EP4; format: cell-based
# Chain of EP4 receptor (P35408 whole entry): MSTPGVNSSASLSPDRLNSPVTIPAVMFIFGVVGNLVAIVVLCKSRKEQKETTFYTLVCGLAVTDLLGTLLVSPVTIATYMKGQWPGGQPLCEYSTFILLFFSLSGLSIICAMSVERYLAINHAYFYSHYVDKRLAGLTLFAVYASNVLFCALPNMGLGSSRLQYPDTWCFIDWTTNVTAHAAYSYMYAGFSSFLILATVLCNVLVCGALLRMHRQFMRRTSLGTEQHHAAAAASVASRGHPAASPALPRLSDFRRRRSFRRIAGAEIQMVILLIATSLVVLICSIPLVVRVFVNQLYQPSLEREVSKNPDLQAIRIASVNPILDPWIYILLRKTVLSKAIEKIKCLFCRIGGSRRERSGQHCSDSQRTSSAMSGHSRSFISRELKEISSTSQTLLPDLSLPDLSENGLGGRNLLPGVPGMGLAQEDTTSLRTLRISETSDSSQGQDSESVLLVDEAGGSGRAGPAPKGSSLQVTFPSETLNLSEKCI
# FAAH Rat brain = target: T4, FAAH Rat brain (Rattus norvegicus, UniProt P97612); assay: FAAH inhibitory activity, rat brain membranes, [14C]-AEA hydrolysis; format: biochemical
# T4 construct: from tissue; host or cells: rat brain membranes
# T4 sequence (P97612 1-579): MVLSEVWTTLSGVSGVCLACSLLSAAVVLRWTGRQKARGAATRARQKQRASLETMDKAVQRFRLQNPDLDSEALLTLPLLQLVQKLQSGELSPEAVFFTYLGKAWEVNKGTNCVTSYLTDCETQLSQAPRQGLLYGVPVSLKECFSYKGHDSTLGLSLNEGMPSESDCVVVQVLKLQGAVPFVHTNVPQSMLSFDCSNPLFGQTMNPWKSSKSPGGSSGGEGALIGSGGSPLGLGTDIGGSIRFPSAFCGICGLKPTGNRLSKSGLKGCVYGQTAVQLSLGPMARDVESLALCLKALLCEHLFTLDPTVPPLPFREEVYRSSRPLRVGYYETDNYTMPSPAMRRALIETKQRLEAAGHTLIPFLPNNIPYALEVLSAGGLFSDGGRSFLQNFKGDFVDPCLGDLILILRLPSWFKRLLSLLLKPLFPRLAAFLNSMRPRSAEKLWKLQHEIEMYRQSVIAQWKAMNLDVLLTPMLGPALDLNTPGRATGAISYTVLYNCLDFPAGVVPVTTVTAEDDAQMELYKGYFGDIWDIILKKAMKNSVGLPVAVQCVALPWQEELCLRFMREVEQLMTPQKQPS
# Procedure: The compounds of Examples 12, and 19 are tested for FAAH inhibitory activity as follows:
# Method 1: Membranes obtained from rat brain are incubated with 2 mM [^14C]-AEA, 30 min at 37° C. at pH values ranging from 9.00 to 10.00 in presence and absence of tested compounds in a final volume of […]. Incubation is stopped by extraction with CHCl3/MeOH (1:1) and the aqueous phases containing [^14C]-Ethanolamine produced by [^14C]-AEA hydrolysis are measured.
# TP receptor = target: T5, TP receptor (Homo sapiens, UniProt P21731); assay: Prostanoid receptor antagonism (FLIPR), TP; format: cell-based
# T5 sequence (P21731 1-343): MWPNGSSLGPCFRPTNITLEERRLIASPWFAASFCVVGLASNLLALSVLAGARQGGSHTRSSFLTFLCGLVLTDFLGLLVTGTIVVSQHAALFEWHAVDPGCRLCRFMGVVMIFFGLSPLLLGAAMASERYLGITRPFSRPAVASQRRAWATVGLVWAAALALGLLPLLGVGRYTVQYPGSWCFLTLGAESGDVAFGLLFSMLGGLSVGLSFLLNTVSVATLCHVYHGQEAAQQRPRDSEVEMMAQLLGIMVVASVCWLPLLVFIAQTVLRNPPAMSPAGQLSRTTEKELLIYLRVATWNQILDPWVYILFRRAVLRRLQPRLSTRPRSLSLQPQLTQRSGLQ
# FP receptor = FP receptor (Homo sapiens, UniProt P43088); assay: Prostanoid receptor antagonism (FLIPR), FP; format: cell-based
# Chain of FP receptor (P43088 whole entry): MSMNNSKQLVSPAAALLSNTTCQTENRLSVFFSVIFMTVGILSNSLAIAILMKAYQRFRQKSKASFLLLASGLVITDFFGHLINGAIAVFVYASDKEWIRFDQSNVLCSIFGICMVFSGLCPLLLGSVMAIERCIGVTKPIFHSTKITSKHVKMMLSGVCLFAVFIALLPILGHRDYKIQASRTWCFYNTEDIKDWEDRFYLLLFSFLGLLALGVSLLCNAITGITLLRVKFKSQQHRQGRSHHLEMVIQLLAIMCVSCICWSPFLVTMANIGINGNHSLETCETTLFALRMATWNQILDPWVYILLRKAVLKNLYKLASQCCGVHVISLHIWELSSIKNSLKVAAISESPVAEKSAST
# IP receptor = IP receptor (Homo sapiens, UniProt P43119); assay: Prostanoid receptor antagonism (FLIPR), IP; format: cell-based
# Chain of IP receptor (P43119 whole entry): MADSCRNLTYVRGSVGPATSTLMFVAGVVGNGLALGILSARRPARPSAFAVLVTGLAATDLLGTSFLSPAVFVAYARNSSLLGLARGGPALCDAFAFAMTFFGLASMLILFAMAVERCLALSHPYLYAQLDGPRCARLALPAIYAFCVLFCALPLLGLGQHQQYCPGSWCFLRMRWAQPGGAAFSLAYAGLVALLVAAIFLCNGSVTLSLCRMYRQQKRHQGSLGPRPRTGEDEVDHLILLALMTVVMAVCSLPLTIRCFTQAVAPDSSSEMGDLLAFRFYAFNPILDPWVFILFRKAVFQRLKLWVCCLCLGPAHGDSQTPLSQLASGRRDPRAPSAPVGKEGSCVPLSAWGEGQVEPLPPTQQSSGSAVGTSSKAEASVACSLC
# EP2 receptor = EP2 receptor (Homo sapiens, UniProt P43116); assay: Prostanoid receptor antagonism (FLIPR), EP2; format: cell-based
# Chain of EP2 receptor (P43116 whole entry): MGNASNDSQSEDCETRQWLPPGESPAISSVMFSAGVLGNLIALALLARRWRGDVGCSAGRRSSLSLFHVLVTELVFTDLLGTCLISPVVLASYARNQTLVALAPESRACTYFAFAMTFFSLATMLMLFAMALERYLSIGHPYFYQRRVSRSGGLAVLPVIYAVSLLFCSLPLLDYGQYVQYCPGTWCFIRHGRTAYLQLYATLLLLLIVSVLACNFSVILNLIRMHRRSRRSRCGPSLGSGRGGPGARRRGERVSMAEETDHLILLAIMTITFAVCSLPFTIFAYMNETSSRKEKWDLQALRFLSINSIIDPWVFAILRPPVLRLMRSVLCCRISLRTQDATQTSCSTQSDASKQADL
# [1] = Table 2, rat brain, read-out: FAAH Rat brain IC50
# [2] = Table 1, rat brain, read-out: FAAH Rat brain IC50
# [3] = Table 3, quantity, enzyme source and unit inferred, read-out: FAAH
Compound,Kb (DP receptor; Table 2),Kb (EP3 receptor; Table 2),Kb (EP1 receptor; Table 2),Kb (EP4 receptor; Table 2),IC50 (FAAH Rat brain; [1]),Kb (TP receptor; Table 2),Kb (FP receptor; Table 2),"Kb (EP2 receptor; Table 2, NA = inactive)",Kb (DP receptor; Table 1),Kb (EP3 receptor; Table 1),Kb (IP receptor; Table 1),Kb (EP1 receptor; Table 1),Kb (EP4 receptor; Table 1),IC50 (FAAH Rat brain; [2]),Kb (TP receptor; Table 1),Kb (EP2 receptor; Table 1),Kb (FP receptor; Table 1),further results
"COc1ccc(CCC(=O)NS(=O)(=O)C(C)C)c(CN2CCC[C@H]2c2nc(C(=O)NCCCCC3CCCCC3)co2)c1 [Example 12i, (S)—N-(4-cyclohexylbutyl)-2-(1-(5-methoxy-2-(3-oxo-3-(isopropylsulfonamido)propyl)benzyl)pyrrolidin-2-yl)oxazole-4-carboxamide]",44 nM,480 nM,1900 nM,210 nM,150 nM,1 nM,1500 nM,,,,,,,,,,,
COc1ccc(CCC(=O)NS(=O)(=O)N(C)C)c(CN2CCC[C@H]2c2nc(C(=O)NCCCCC3CCCCC3)co2)c1 [Example 12k],80 nM,5600 nM,3100 nM,400 nM,200 nM,13 nM,1400 nM,4000 nM,,,,,,,,,,"Kb (IP receptor; Table 2, NA = inactive): 2900 nM"
"O=C(CCc1ccc(Cl)cc1CN1CCC[C@H]1c1nc(C(=O)NCCCCC2CCCCC2)co1)NS(=O)(=O)C(F)(F)F [Example 12b, (S)—N-(4-cyclohexylbutyl)-2-(1-(5-chloro-2-(3-oxo-3-(trifluoromethylsulfonamido)propyl)benzyl)pyrrolidin-2-yl)oxazole-4-carboxamide]",,,,,,,,,< 1 nM,100 nM,9500 nM,70 nM,40 nM,4500 nM,< 1 nM,5500 nM,460 nM,
"COc1ccc(CCC(=O)NS(=O)(=O)CCCF)c(CN2CCC[C@H]2c2nc(C(=O)NCCCCC3CCCCC3)co2)c1 [Example 12h, 2(S)—N-(4-cyclohexylbutyl)-2-(1-(5-methoxy-2-(3-oxo-3-(fluoropropylsulfonamido)propyl)benzyl)pyrrolidin-2-yl)oxazole-4-carboxamide]",8 nM,50 nM,830 nM,150 nM,100 nM,8 nM,2000 nM,7800 nM,,,,,,,,,,
"COc1ccc(CCC(=O)NS(C)(=O)=O)c(C(=O)N2CCC[C@H]2c2nc(C(=O)NCCCCC3CCCCC3)co2)c1 [Example 19b, 2-{(S)-1-[2-(3-Methanesulfonylamino-3-oxo-propyl)-5-methoxy-benzoyl]-pyrrolidin-2-yl}-oxazole-4-carboxylic acid (4-cyclohexyl-butyl)-amide]",,,,,,,,,,,,,,,,,,IC50 (FAAH Rat brain; [3]): 30 nM
COc1ccc(CCC(=O)O)c(C(=O)N2CCC[C@H]2c2nc(C(=O)NCCCCC3CCCCC3)co2)c1 [Example 19],,,,,,,,,,,,,,,,,,IC50 (FAAH Rat brain; [3]): 180 nM
"CCS(=O)(=O)NC(=O)CCc1ccc(OC)cc1C(=O)N1CCC[C@H]1c1nc(C(=O)NCCCCC2CCCCC2)co1 [Example 19a, 2-{(S)-1-[2-(3-Ethanesulfonylamino-3-oxo-propyl)-5-methoxy-benzoyl]-pyrrolidin-2-yl}-oxazole-4-carboxylic acid (4-cyclohexyl-butyl)-amide]",,,,,,,,,,,,,,,,,,IC50 (FAAH Rat brain; [3]): 20 nM
O=C(CCc1ccc(F)cc1CN1CCC[C@H]1c1nc(C(=O)NCCCCC2CCCCC2)co1)NS(=O)(=O)C(F)(F)F [Example 12a],,,,,,,,,< 1 nM,80 nM,550 nM,50 nM,40 nM,1000 nM,< 1 nM,6400 nM,350 nM,
"CCCCCCCCNC(=O)c1coc([C@@H]2CCCN2Cc2cc(F)ccc2CCC(=O)NS(=O)(=O)C(F)(F)F)n1 [Example 12e, 2-{1-[5-fluoro-2-(3-oxo-3-{[(trifluoromethyl)sulfonyl]amino}propyl)benzyl]pyrrolidin-2-yl}-N-octyl-1,3-oxazole-4-carboxamide]",,,,,,,,,20 nM,110 nM,290 nM,20 nM,20 nM,,< 1 nM,2500 nM,270 nM,IC50 (FAAH Rat brain): 2100 nM
"CCS(=O)(=O)NC(=O)CCc1ccc(OC)cc1CN1CCC[C@H]1c1nc(C(=O)NCCCCC2CCCCC2)co1 [Example 12l, (S)—N-(4-cyclohexylbutyl)-2-(1-(5-methoxy-2-(3-oxo-3-(ethylsulfonamido)propyl)benzyl)pyrrolidin-2-yl)oxazole-4-carboxamide]",40 nM,910 nM,180 nM,160 nM,240 nM,11 nM,1600 nM,1800 nM,,,,,,,,,,"Kb (IP receptor; Table 2, NA = inactive): 6900 nM"
"COc1ccc(CCC(=O)NS(=O)(=O)C(F)(F)F)c(CN2CCC[C@H]2c2nc(C(=O)NCCCCC3CCCCC3)co2)c1 [Example 12c, (S)—N-(4-cyclohexylbutyl)-2-(1-(5-methoxy-2-(3-oxo-3-(trifluoromethylsulfonamido)propyl)benzyl)pyrrolidin-2-yl)oxazole-4-carboxamide]",,,,,,,,,17 nM,47 nM,860 nM,20 nM,10 nM,200 nM,< 1 nM,830 nM,270 nM,
"COc1ccc(CCC(=O)NS(=O)(=O)c2ccc(Cl)s2)c(CN2CCC[C@H]2c2nc(C(=O)NCCCCC3CCCCC3)co2)c1 [Example 12j, (S)—N-(4-cyclohexylbutyl)-2-(1-(5-methoxy-2-(3-oxo-3-(5-chlorothienylsulfonamido)propyl)benzyl)pyrrolidin-2-yl)oxazole-4-carboxamide]",28 nM,10 nM,240 nM,360 nM,210 nM,4 nM,2300 nM,900 nM,,,,,,,,,,
O=C(CCc1cc2c(cc1CN1CCC[C@H]1c1nc(C(=O)NCCCCC3CCCCC3)co1)OCO2)NS(=O)(=O)C(F)(F)F [Example 12d],,,,,,,,,3 nM,150 nM,1000 nM,60 nM,7 nM,740 nM,0.3 nM,3900 nM,360 nM,
